Laboratory results published in patent US11896680B2, “Detection method” (Mie University, priority 2017, dated 2024).

How the values were obtained:
[1] = tested on: large intestine (cancer tumor site) of a colon cancer mouse; experiment: vital staining of cancer tumor site in large intestine of colon cancer mouse, imaged with laser microscope; assay type: in vivo
Experimental: (§1) 100 mg of curcumin (Tokyo Kasei, cat. #C2302, purity 97.0%) was suspended in 5 mL of ethanol, and further diluted 10-fold with ethanol. It was mixed with the same amount of glycerin, and further diluted 10-fold with glycerin. The mixture was mixed with the same amount of purified water to obtain a staining solution of curcumin. As for Red #106, its staining solution is obtained by dissolving the powder in saline to the concentration of 1 mg/mL.
(§2) C57BL/6N mice purchased from Japan SLC, Inc. were used in the tests. All tests were performed on male, 8-week-old mice weighing 20˜25 grams.
Model mice with colon cancer were prepared by intraperitoneally administering 10 mg/kg of azoxymethane (AOM) dissolved in saline 4 times at weekly intervals to C57BL/6N mice.
(§3) A multiphoton laser microscope of FVMPE-RS (Olympus) was used with the irradiation wavelength of 800 nm. Laser irradiation was performed at 5.8˜48.2% of its full power output. A confocal laser microscope of FV1000 (Olympus) was used with the irradiation wavelength of 488 nm and 594 nm, wherein the laser irradiation at 488 nm was performed at […] of its full power output, and the laser irradiation at 594 nm was performed at 13˜13.5% of its full power output. The direction of irradiation and staining from serosal or luminal side are described in the figures.

[2] = tested on: large intestine of a mouse (normal mucosal tissue); experiment: vital staining of normal mouse large intestine, imaged with confocal or multiphoton laser microscope
Experimental: as §1, §2, §3

[3] = stained and photographed from luminal side, FIG. 11A and 11B
[4] = five-layer structure of normal large intestine
[5] = stained from serosa side, confocal laser microscope, FIG. 5c

Row | SMILES | staining of cytoplasm of invaded cancer cells inside smooth muscle layer relative to surrounding tissues ([1]; stained and observed from serosal side, confocal laser microscope, FIG. 10A) | staining of cytoplasm of cancer cells [1, 3] | staining of nuclei of cancer cells [1, 3] | staining of Auerbach's plexus inside muscle layer [2, 4] | staining of glandular cells in epithelial and glandular layers (1) [2, 4] | staining of the smooth muscle in muscle layer (4) [2, 4] | staining of the smooth muscle in muscularis mucosae (2) [2, 4] | staining of nerve fibers of Auerbach's plexus [2, 5] | staining of perikaryon of Auerbach's plexus [2, 5] | staining of network of capillaries surrounding the glandular structures of epithelial and glandular layers (1) [2, 4] | staining of the wall of a thick blood vessel inside muscle layer [2, 4]
1 | COc1cc(/C=C/C(=O)CC(=O)/C=C/c2ccc(O)c(OC)c2)ccc1O [curcumin] | darker than surrounding tissues | stained severely | stained negatively | severely positive | severely positive | mildly positive | severely positive | lightly | darkly |  | 
2 | CCN(CC)c1ccc2c(-c3ccc(S(=O)(=O)[O-])cc3S(=O)(=O)[O-])c3ccc(=[N+](CC)CC)cc-3oc2c1.[Na+] [Red #106] |  |  |  |  |  | mildly positive | mildly positive |  |  | severely positive | severely positive
